Laboratory results as given in patent publication US20120178625A1, “METHOD FOR REDUCING PISTILLATE FLOWER ABORTION IN PLANTS” (BASF SE, priority 2009, published 2012).

Tested on: walnut (Juglans regia cv. Serr)
Test: Control of PFA (pistillate flower abortion) field trial in a walnut orchard, Graneros, Chile (2008/2009)
Type: in vivo
Settings: water 1500 l/ha
Source text: In the terms of the present invention, “reducing pistillate flower abortion in plants” refers to a reduction in the level of PFA. This reduction can be measured by determining a) the fruit set (%), b) the number of growing fruits (%) and/or c) the remaining fruits at harvest (%) (fruit yield). The higher the percentage of fruit set, growing fruits and/or remaining fruits at harvest, the lower the respective pistillate flower abortion. The trial was run in a walnut orchard (Juglans regia cv. Serr) located in Graneros, Chile in the year 2008. Trial design was completely randomized with 3 replicates per treatment. Each replicate had identified branches completing 100 female flowers. Remaining fruit were counted after fruit set and at harvest time. […] [table] […] As a consequence PFA was quite high, influencing adversely yields in orchard where no ethylene control was done.

[1] = Treatment No. 2: 0.5 l/ha, 2 applications (10% and 30% of pistillates flowering)
[2] = Treatment No. 5: 0.7 l/ha + 0.015% Break-Thru, 3 applications (10%, 30% and 50% of pistillates flowering)

## COC(=O)N(OC)c1ccccc1COc1ccn(-c2ccc(Cl)cc2)n1 [Pyraclostrobin, pyraclostrobin]
[1]
  Fruit set (%) (Oct. 23, 2008): 54.0%
  Increase (%) compared to UTC, fruit set: +108%
  Increase (%) compared to UTC, remaining fruits at harvest: +106%
  Increase (%) compared to UTC, small growing fruits: +104%
  Remaining fruits at harvest (%) (Mar. 03, 2009): 46.0%
  Small growing fruits (%) (Nov. 10, 2008): 46.3%
[2]
  Increase (%) compared to UTC, fruit set: +165%
  Increase (%) compared to UTC, remaining fruits at harvest: +200%
  Increase (%) compared to UTC, small growing fruits: +201%
